From PubChem BioAssay (NCI)
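48-hour exposure; five concentrations; linearly interpolated endpoints. Here, GI50 denotes the concentration required for 50% inhibition of growth. Definition used: TGI = concentration required for complete inhibition of growth.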

Legend:
Test in all cases: NCI-60 cell line screen, 48 h
RXF 393 renal = system: RXF 393 renal
MALME-3M melanoma = system: MALME-3M melanoma
SNB-19 CNS = system: SNB-19 CNS
SNB-75 CNS = system: SNB-75 CNS
KM12 colon = system: KM12 colon
RPMI-8226 leukemia = system: RPMI-8226 leukemia
U251 CNS = system: U251 CNS
UO-31 renal = system: UO-31 renal
LOX IMVI melanoma = system: LOX IMVI melanoma
ACHN renal = system: ACHN renal

Row | Compound | GI50 (RXF 393 renal) | TGI (RXF 393 renal) | GI50 (MALME-3M melanoma) | TGI (MALME-3M melanoma) | GI50 (SNB-19 CNS) | TGI (SNB-19 CNS) | GI50 (SNB-75 CNS) | TGI (SNB-75 CNS) | GI50 (KM12 colon) | TGI (KM12 colon) | GI50 (RPMI-8226 leukemia) | TGI (RPMI-8226 leukemia) | GI50 (U251 CNS) | TGI (U251 CNS) | GI50 (UO-31 renal) | TGI (UO-31 renal) | GI50 (LOX IMVI melanoma) | TGI (LOX IMVI melanoma) | GI50 (ACHN renal) | TGI (ACHN renal)
1 | NC(=O)CCC(NC(=O)OCc1ccccc1)C(=O)OCC(=O)c1ccccc1 (stereo not given) | > 100 µM | > 100 µM | > 100 µM | > 100 µM | > 100 µM | > 100 µM | > 100 µM | > 100 µM | > 100 µM | > 100 µM | > 100 µM | > 100 µM | > 100 µM | > 100 µM | > 100 µM | > 100 µM | > 100 µM | > 100 µM | > 100 µM | > 100 µM
2 | CN1/C(=C\C(I)C(I)C2=[N+](C)c3ccccc3C2(C)C)C(C)(C)c2ccccc21 (stereo not given) | 0.497 µM | 3.6 µM | 0.277 µM | 14 µM | 0.291 µM | 40.3 µM | 0.416 µM | 9.77 µM | 0.33 µM | 11.8 µM | 0.057 µM | 2.67 µM | 0.262 µM | 15.7 µM | 0.601 µM | 9.75 µM | 0.295 µM | 13.4 µM | 0.665 µM | 26.4 µM
3 | Cl.[Pt].[c-]1ccccc1-c1ccccn1.c1ccc(P(c2ccccc2)C([PH+](c2ccccc2)c2ccccc2)[PH+](c2ccccc2)c2ccccc2)cc1 | 1.48 µM | 4.01 µM | 0.42 µM | 2.65 µM | 0.764 µM | 21.2 µM | 1.64 µM | 23.5 µM | 2.48 µM | 7.22 µM | 0.525 µM | 3.66 µM | 0.577 µM | 2.69 µM | 1.8 µM | 6.28 µM | 1.65 µM | 4.6 µM | 1.84 µM | 11.5 µM
4 | Oc1ccc2oc3ncc(Cl)c(-c4ccccc4)c3c2c1 | > 100 µM | > 100 µM | > 100 µM | > 100 µM | > 100 µM | > 100 µM | > 100 µM | > 100 µM | > 100 µM | > 100 µM | > 100 µM | > 100 µM | > 100 µM | > 100 µM | > 100 µM | > 100 µM | > 100 µM | > 100 µM | > 100 µM | > 100 µM
5 | Cc1ccc(Cl)cc1Nc1nc(C(F)(F)F)ccc1C(=O)Nc1cccc(C(F)(F)F)c1 | 2.7 µM | 7.92 µM | 3.04 µM | 12.4 µM | 3.59 µM | 14.6 µM | 3.11 µM | 12.3 µM | 3.12 µM | 12.8 µM | 2.34 µM | 12.6 µM | 3.68 µM | 14.5 µM | 2.84 µM | 12.7 µM | 3.73 µM | 13.2 µM | 2.95 µM | 12.8 µM
6 | Cc1nc(C)c(C(=O)Nc2cccc3c2C(=O)NC3=O)cc1C(=O)Nc1cccc2c1C(=O)NC2=O | – | > 100 µM | – | > 100 µM | – | > 100 µM | – | > 100 µM | – | > 100 µM | – | > 100 µM | – | > 100 µM | – | > 100 µM | – | > 100 µM | – | > 100 µM
